ChEMBL document CHEMBL1909046, “DrugMatrix in vitro pharmacology data”

Tests used:
[1] = DRUGMATRIX: Phosphodiesterase PDE4 enzyme inhibition (substrate: [3H]cAMP + cAMP); details: u-937, Not Active = under 50% inhibition at 10 µM
[2] = DRUGMATRIX: Glutamate, NMDA, Agonism radioligand binding (ligand: [3H] CGP-39653); format: cell membranes, Rattus norvegicus, Wistar, Cerebral cortex, Membrane; details: Not Active = under 50% inhibition at 10 µM
[3] = target: Voltage-gated inwardly rectifying potassium channel KCNH2 (Homo sapiens, UniProt Q12809); details: hek293; note: in other assays of this panel Not Active means under 50% inhibition at 10 µM
Voltage-gated inwardly rectifying potassium channel KCNH2, sequence (Q12809 whole entry): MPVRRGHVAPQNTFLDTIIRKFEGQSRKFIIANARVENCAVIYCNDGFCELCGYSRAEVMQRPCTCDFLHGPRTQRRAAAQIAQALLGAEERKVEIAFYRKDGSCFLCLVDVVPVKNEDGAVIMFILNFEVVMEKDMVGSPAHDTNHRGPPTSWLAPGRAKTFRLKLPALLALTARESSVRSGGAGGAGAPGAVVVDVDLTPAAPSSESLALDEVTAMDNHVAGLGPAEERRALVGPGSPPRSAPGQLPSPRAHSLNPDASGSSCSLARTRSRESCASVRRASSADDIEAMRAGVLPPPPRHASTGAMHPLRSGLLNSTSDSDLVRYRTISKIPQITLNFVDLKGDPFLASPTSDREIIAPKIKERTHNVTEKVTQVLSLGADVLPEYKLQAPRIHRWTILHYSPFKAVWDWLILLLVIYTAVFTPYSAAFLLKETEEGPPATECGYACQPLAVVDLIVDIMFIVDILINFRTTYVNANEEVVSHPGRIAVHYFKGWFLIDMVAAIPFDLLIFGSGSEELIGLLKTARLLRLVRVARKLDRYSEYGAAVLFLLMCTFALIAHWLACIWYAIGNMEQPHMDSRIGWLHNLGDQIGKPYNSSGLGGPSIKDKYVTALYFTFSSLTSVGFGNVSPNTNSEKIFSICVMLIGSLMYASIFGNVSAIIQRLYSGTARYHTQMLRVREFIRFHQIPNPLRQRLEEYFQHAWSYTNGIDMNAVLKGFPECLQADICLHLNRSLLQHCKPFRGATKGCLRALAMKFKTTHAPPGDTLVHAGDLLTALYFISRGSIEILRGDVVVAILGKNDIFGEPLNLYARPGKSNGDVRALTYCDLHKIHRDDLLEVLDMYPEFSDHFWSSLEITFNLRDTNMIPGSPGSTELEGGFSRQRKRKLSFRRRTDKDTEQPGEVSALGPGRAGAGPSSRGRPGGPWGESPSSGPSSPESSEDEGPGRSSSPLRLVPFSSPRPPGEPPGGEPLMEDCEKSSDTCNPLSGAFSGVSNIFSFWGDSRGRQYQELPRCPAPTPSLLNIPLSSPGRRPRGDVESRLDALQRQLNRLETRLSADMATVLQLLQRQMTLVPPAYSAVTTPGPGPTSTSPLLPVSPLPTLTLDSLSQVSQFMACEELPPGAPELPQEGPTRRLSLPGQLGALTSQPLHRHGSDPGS

[4] = target: Insulin receptor (Rattus norvegicus, UniProt P15127); format: cell membranes, Wistar, Liver, Membrane; note: in other assays of this panel Not Active means under 50% inhibition at 10 µM
Insulin receptor, sequence (P15127 27-759 limits assumed): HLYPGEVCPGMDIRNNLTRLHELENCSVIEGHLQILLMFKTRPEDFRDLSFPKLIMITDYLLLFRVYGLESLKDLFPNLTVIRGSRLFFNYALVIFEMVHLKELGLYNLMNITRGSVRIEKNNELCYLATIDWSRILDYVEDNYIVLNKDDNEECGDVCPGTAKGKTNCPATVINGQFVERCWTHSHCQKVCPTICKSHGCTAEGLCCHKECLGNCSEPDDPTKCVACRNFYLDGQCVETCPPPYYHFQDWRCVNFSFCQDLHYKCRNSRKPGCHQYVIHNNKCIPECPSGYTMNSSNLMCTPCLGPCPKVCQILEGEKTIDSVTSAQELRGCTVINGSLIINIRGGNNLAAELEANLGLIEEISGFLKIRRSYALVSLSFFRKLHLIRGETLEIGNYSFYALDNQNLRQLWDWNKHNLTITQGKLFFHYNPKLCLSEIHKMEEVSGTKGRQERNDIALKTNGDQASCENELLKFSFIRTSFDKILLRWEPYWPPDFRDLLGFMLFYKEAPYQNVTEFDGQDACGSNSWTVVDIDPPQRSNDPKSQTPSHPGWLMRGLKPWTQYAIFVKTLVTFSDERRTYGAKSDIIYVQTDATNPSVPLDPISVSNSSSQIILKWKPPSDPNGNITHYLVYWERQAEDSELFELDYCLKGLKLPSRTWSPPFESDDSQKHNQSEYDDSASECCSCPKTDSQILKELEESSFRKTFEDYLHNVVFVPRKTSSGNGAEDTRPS
Insulin receptor, sequence (P15127 764-1383 limits assumed): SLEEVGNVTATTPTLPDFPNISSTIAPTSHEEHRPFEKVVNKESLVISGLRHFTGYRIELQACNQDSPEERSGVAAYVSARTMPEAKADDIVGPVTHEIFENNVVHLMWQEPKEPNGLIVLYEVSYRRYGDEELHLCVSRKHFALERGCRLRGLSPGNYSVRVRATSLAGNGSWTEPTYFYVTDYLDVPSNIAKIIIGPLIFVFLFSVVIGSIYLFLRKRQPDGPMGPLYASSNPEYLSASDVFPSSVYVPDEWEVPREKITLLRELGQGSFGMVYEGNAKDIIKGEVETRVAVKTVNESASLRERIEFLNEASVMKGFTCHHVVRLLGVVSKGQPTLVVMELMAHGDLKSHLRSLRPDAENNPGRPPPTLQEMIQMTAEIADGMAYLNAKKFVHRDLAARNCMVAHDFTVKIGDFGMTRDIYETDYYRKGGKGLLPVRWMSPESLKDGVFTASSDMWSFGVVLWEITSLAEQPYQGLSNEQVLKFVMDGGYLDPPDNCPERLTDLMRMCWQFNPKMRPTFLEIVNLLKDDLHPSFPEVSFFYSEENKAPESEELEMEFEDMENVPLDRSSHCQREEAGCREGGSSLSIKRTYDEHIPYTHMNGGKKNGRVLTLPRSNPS

[5] = target: Adenosine receptor A2a (Homo sapiens, UniProt P29274); assay: DRUGMATRIX: Adenosine A2A radioligand binding (ligand: […]); format: cell membranes, Membrane; details: hek293; Not Active = under 50% inhibition at 10 µM
Adenosine receptor A2a, sequence (P29274 whole entry): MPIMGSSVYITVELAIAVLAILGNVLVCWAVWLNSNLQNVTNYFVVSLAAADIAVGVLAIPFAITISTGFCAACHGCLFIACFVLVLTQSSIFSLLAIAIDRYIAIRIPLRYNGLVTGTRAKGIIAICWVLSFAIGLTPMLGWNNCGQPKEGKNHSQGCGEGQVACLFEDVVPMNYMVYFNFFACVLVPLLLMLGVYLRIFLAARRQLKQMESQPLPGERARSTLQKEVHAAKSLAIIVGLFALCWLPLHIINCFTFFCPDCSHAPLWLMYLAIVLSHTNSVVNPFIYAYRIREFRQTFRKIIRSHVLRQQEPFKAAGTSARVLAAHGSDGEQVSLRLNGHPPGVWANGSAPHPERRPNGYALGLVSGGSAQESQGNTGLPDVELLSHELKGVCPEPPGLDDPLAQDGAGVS

[6] = target: Tyrosine-protein kinase Lck (Homo sapiens, UniProt P06239); assay: DRUGMATRIX: Protein Tyrosine Kinase, LCK enzyme inhibition (substrate: Poly(Glu:Tyr)); format: cell-based, Insect cells; details: Not Active = under 50% inhibition at 10 µM
Tyrosine-protein kinase Lck, sequence (P06239 whole entry): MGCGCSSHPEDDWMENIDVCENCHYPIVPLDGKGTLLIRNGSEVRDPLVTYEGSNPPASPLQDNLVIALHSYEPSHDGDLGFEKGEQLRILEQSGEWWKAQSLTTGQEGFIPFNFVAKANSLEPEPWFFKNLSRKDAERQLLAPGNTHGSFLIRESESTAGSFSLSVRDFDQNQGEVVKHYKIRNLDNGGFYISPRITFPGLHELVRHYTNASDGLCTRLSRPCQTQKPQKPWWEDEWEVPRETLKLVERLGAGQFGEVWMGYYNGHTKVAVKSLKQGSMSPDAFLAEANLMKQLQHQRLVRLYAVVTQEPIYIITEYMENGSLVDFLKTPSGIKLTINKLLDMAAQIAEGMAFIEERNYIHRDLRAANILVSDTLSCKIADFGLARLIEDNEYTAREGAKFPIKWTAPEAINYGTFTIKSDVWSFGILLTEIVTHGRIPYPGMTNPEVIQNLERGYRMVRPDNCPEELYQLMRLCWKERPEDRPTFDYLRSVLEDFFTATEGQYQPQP

[7] = target: Cytochrome P450 2E1 (Homo sapiens, UniProt P05181); details: bti-tn-5b1-4; note: in other assays of this panel Not Active means under 50% inhibition at 10 µM
Cytochrome P450 2E1, sequence (P05181 whole entry): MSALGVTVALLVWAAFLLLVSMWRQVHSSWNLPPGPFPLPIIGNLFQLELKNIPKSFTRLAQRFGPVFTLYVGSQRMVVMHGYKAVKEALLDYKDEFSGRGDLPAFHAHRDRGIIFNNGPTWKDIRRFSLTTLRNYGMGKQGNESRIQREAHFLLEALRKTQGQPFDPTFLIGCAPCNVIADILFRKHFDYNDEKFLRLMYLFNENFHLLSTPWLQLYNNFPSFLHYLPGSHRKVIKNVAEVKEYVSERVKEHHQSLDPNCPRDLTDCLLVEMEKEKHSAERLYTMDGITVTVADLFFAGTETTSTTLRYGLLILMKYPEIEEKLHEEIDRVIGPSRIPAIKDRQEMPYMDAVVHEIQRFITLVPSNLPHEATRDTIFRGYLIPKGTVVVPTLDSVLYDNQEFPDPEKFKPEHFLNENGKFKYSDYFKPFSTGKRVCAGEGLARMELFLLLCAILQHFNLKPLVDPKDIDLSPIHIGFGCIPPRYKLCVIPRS

[8] = target: Vasopressin V1a receptor (Homo sapiens, UniProt P37288); format: cell membranes, Membrane; details: hek293; note: in other assays of this panel Not Active means under 50% inhibition at 10 µM
Vasopressin V1a receptor, sequence (P37288 whole entry): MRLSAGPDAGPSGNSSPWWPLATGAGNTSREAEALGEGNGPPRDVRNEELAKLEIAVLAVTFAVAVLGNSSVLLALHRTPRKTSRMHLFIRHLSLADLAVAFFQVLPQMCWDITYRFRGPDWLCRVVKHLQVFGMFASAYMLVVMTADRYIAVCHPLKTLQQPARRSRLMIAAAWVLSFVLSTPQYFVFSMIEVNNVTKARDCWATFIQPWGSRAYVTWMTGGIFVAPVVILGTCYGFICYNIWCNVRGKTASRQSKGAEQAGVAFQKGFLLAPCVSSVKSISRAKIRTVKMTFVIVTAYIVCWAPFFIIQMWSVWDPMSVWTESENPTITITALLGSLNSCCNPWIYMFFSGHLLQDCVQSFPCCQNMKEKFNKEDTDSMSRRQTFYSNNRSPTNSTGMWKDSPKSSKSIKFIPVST

Row | SMILES | IC50 [1] | Ki [1] | IC50 [2] | Ki [2] | IC50 [3] | Ki [3] | IC50 [4] | IC50 [5] | IC50 ([6]; insect cells) | IC50 [7] | Ki [7] | IC50 [8] | IC50 ([1]; read-out: IC50) | IC50 ([6]; read-out: IC50)
1 | CC(C)(C)NC(=O)[C@@H]1C[C@@H]2CCCC[C@@H]2CN1C[C@@H](O)[C@H](Cc1ccccc1)NC(=O)[C@H](CC(N)=O)NC(=O)c1ccc2ccccc2n1 | Not Active | Not Active | Not Active | Not Active | Not Active | Not Active | Not Active | Not Active | Not Active | Not Active | Not Active | – | – | –
2 | CC(=O)[C@@]1(O)CC[C@H]2[C@@H]3C[C@H](C)C4=CC(=O)CC[C@]4(C)[C@H]3CC[C@@]21C | Not Active | Not Active | Not Active | Not Active | Not Active | Not Active | Not Active | Not Active | Not Active | Not Active | Not Active | Not Active | – | –
3 | N[C@@H](Cc1ccc(N(CCCl)CCCl)cc1)C(=O)O | Not Active | Not Active | Not Active | Not Active | Not Active | Not Active | Not Active | Not Active | Not Active | Not Active | Not Active | Not Active | – | –
4 | CCCCc1oc2ccccc2c1C(=O)c1cc(I)c(OCCN(CC)CC)c(I)c1 [AMIODARONE] | – | – | – | – | – | – | Not Active | Not Active | Not Active | Not Active | Not Active | Not Active | – | –
5 | OCCN(CCO)c1nc(N2CCCCC2)c2nc(N(CCO)CCO)nc(N3CCCCC3)c2n1 [DIPYRIDAMOLE] | – | – | Not Active | Not Active | Not Active | Not Active | Not Active | Not Active | Not Active | Not Active | Not Active | Not Active | 1.58 µM | –
6 | Cc1oncc1C(=O)Nc1ccc(C(F)(F)F)cc1 [LEFLUNOMIDE] | Not Active | Not Active | Not Active | Not Active | Not Active | Not Active | Not Active | Not Active | Not Active | Not Active | Not Active | Not Active | – | –
7 | c1ccc([C@H]2CN3CCSC3=N2)cc1 [LEVAMISOLE] | Not Active | Not Active | Not Active | Not Active | Not Active | Not Active | Not Active | Not Active | Not Active | Not Active | Not Active | Not Active | – | –
8 | N[C@@H](Cc1ccc(O)c(O)c1)C(=O)O [LEVODOPA] | Not Active | Not Active | Not Active | Not Active | Not Active | Not Active | Not Active | Not Active | – | Not Active | Not Active | Not Active | – | 3.73 µM
9 | N[C@@H](Cc1cc(I)c(Oc2ccc(O)c(I)c2)c(I)c1)C(=O)O [LIOTHYRONINE] | – | – | – | – | Not Active | Not Active | Not Active | Not Active | Not Active | Not Active | Not Active | Not Active | – | –
10 | O=NN(CCCl)C(=O)NC1CCCCC1 [LOMUSTINE] | Not Active | Not Active | Not Active | Not Active | Not Active | Not Active | Not Active | Not Active | Not Active | Not Active | Not Active | Not Active | – | –
11 | CCOC(=O)N1CCC(=C2c3ccc(Cl)cc3CCc3cccnc32)CC1 [LORATADINE] | Not Active | Not Active | Not Active | Not Active | – | – | Not Active | Not Active | Not Active | Not Active | Not Active | Not Active | – | –
12 | Cn1ccnc1S [METHIMAZOLE] | Not Active | Not Active | Not Active | Not Active | Not Active | Not Active | Not Active | Not Active | Not Active | Not Active | Not Active | Not Active | – | –
13 | CC[C@@H](CO)NC(=O)[C@@H]1C=C2c3cccc4[nH]cc(c34)C[C@H]2N(C)C1 [METHYLERGONOVINE] | Not Active | Not Active | Not Active | Not Active | Not Active | Not Active | Not Active | Not Active | Not Active | Not Active | Not Active | Not Active | – | –
14 | COc1nc(C)nc(Cl)c1NC1=NCCN1 [MOXONIDINE] | Not Active | Not Active | Not Active | Not Active | Not Active | Not Active | Not Active | Not Active | Not Active | Not Active | Not Active | Not Active | – | –
15 | COc1c(C)c2c(c(O)c1C/C=C(\C)CCC(=O)O)C(=O)OC2 [MYCOPHENOLIC ACID] | Not Active | Not Active | Not Active | Not Active | Not Active | Not Active | Not Active | Not Active | Not Active | Not Active | Not Active | Not Active | – | –
16 | CN1CCN(CCCN2c3ccccc3Sc3ccc(Cl)cc32)CC1 [PROCHLORPERAZINE] | – | – | – | – | – | – | Not Active | Not Active | Not Active | Not Active | Not Active | Not Active | – | –
17 | Nc1nc2ccc(OC(F)(F)F)cc2s1 [RILUZOLE] | Not Active | Not Active | Not Active | Not Active | – | – | Not Active | Not Active | Not Active | – | – | Not Active | – | –
18 | Cc1nc2n(c(=O)c1CCN1CCC(c3noc4cc(F)ccc34)CC1)CCCC2 [RISPERIDONE] | – | – | – | – | – | – | Not Active | Not Active | Not Active | Not Active | Not Active | Not Active | – | –
19 | C[C@@H]1CN(c2c(F)c(N)c3c(=O)c(C(=O)O)cn(C4CC4)c3c2F)C[C@H](C)N1 [SPARFLOXACIN] | Not Active | Not Active | Not Active | Not Active | – | – | Not Active | Not Active | Not Active | Not Active | Not Active | Not Active | – | –
20 | CC/C(=C(\c1ccccc1)c1ccc(OCCN(C)C)cc1)c1ccccc1 [TAMOXIFEN] | – | – | – | – | – | – | Not Active | – | – | Not Active | Not Active | Not Active | – | 8.03 µM
21 | Nc1nc2nc[nH]c2c(=S)[nH]1 [THIOGUANINE] | Not Active | Not Active | Not Active | Not Active | – | – | Not Active | Not Active | Not Active | Not Active | Not Active | Not Active | – | –
22 | N[C@@H]1[C@H]2CN(c3nc4c(cc3F)c(=O)c(C(=O)O)cn4-c3ccc(F)cc3F)C[C@@H]12 [TROVAFLOXACIN] | Not Active | Not Active | Not Active | Not Active | Not Active | Not Active | Not Active | Not Active | – | Not Active | Not Active | Not Active | – | –
